pIC50: −log10 of the molar value.

Assay [1] relates to T1, Klebsiella pneumoniae BAA1705™.
T1 construct: ATCC BAA-1705
Briefly: microbe, parasite or virus in culture. Also on record: species or system clinical isolates of E. coli and K. pneumoniae. The following applies: Klebsiella pneumoniae, BAA1705; inhibitor alone; read-out: MIC APC24-7. As for the experimental part:
(§1) MICs for clinical isolates were determined in a broth microdilution assay according to Clinical and Laboratory Standards Institute (CLSI) ([75]), using cation-adjusted Mueller-Hinton broth (Thermo Fisher Scientific, Lenexa, USA). The direct colony suspension method was utilized by preparing an inoculum of an OD600 0.17, except for E. coli #36 in which 0.10 was used, which equated to a concentration of 10^8 colony-forming units (CFU) per mL. Inoculum controls were included for all assays ([76]). […] Subsequently, we aimed to identify a potent β-lactam/APC24-7 combination capable of reversing β-lactamase-mediated BL resistance in our clinical isolates. All 16 isolates were exposed to increasing concentrations of meropenem (carbapenem), aztreonam (monobactam), ceftazidime and cefepime (cephalosporins), as well as amoxicillin (penicillin), both in the absence and presence of 57 µM (32 mg/L) of APC24-7. The effectiveness of these combinations was assessed based on their ability to resensitize the clinical isolates according to the clinical breakpoints (EUCAST clinical breakpoint table version 15.0, www.eucast.org).

The subject of assay [2] is T2, Klebsiella pneumoniae BAA-2146™.
T2 construct: ATCC BAA-2146
Briefly: microbe, parasite or virus in culture. Also on record: species or system clinical isolates of E. coli and K. pneumoniae. The conditions noted are these: Klebsiella pneumoniae, BAA2146; inhibitor alone; read-out: MIC APC24-7. As for the experimental part: as §1

In assay [3] the test system is T3, Klebsiella pneumoniae K46-62.
T3 construct: K46-62
Briefly: microbe, parasite or virus in culture. Also on record: species or system clinical isolates of E. coli and K. pneumoniae. The conditions noted are these: Klebsiella pneumoniae, K4662; inhibitor alone; read-out: MIC APC24-7. As for the experimental part: as §1

The subject of assay [4] is T4, Escherichia coli BAA-2469™.
T4 construct: ATCC BAA-2469
Kind of assay: microbe, parasite or virus in culture. Also on record: species or system clinical isolates of E. coli and K. pneumoniae. The conditions noted are these: Escherichia coli, BAA2469; inhibitor alone; read-out: MIC APC24-7. The protocol:
as §1

A further assay has as its target T5, VIM-2 (Pseudomonas aeruginosa, UniProt Q9K2N0).
T5 construct: gene blaVIM-2
Also on record: Residual beta-lactamase activity; meropenem (NDM-1, 300 nm) or nitrocefin (others, 480 nm) hydrolysis, 1 uM Zn2+ (OXA-48: bicarbonate). The conditions noted are these: inhibitor. As for the experimental part:
(§2) IC50 determination with purified enzymes was performed as previously described ([40]). In brief, enzymes were diluted in 50 mM HEPES, pH 7.5, supplemented with 1 µM Zn^2+. For OXA-48, 50 mM HEPES, pH 7.5, was supplemented with 50 mM sodium bicarbonate buffer solution (Sigma Aldrich). Enzymes and inhibitors were mixed at various inhibitor concentrations, and absorbance was measured by spectrophotometry (Table S5). For NDM-1 and MBP-NDM-9, the hydrolysis of meropenem (24 µM) was monitored at 300 nm using UV- transparent 96-well plates (Corning, Kennebunk, ME). For all other enzymes, nitrocefin (24 µM, Millipore Sigma, USA) hydrolysis was monitored at 480 nm. The residual enzyme activity at various inhibitor concentrations was calculated in comparison to the initial reaction velocity of the inhibitor-free […] control. Dose-response curves were fitted using nonlinear regression in GraphPad Prism v. 10.5.0. All tests were performed at least in duplicates at 25°C.

Another assay has as its system T6, Escherichia coli MP32-64.
T6 construct: MP32-64
Briefly: microbe, parasite or virus in culture. Further details: species or system E. coli E. cloni 10G; Microdilution MIC of inhibitor alone in LB, OD600 read-out, E. coli 10G without or with empty vector. The following applies: MP3264, inhibitor alone, read-out: MIC APC24-7. The protocol: (§3) Susceptibility testing of isogenic E. coli E. cloni 10G (Table 2) was determined by both the microdilution assay. […] Overnight cultures were prepared in LB supplemented with 25 mg/L chloramphenicol at 37°C under shaking at 700 rpm. The overnight cultures were diluted in PBS to 10^6 CFU/ mL, followed by inoculation in LB to ~10^5 CFU in 384-well plates (VWR, Radnor, PA, USA). Plates were prepared with twofold increasing concentrations of meropenem and cefepime ([…], respectively) to a total inoculated volume of 100 µL Plates were incubated at 37°C without shaking for 19–21 h. OD600 was determined in a SpectraMax Plus plate reader (Molecular Devices).

In another assay the test system is T7, Escherichia coli MP21-05.
T7 construct: MP21-05
Briefly: microbe, parasite or virus in culture. Further details: species or system E. coli E. cloni 10G; Microdilution MIC of inhibitor alone in LB, OD600 read-out, E. coli 10G without or with empty vector. The conditions noted are these: MP2105, inhibitor alone, read-out: MIC APC24-7. The protocol: as §3

A further assay deals with OXA-48 (Klebsiella pneumoniae, UniProt Q6XEC0). Kind of assay: biochemical. Further details: Residual beta-lactamase activity; meropenem (NDM-1, 300 nm) or nitrocefin (others, 480 nm) hydrolysis, 1 uM Zn2+ (OXA-48: bicarbonate). As for the experimental part: as §2
Chain of OXA-48 (Q6XEC0 23-265 limits assumed): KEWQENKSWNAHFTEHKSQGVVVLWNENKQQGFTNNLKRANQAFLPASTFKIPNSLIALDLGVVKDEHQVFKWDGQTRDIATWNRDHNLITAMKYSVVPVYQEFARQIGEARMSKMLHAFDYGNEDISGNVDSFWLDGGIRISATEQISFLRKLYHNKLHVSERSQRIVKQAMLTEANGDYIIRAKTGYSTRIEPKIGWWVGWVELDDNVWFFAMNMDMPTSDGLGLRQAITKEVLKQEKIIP
For another assay, the target named is VIM-7 (Pseudomonas aeruginosa, UniProt Q840P9). Kind of assay: biochemical. Also on record: Residual beta-lactamase activity; meropenem (NDM-1, 300 nm) or nitrocefin (others, 480 nm) hydrolysis, 1 uM Zn2+ (OXA-48: bicarbonate). The protocol:
as §2

For a further assay, the target named is T8, NDM-1 (Klebsiella pneumoniae, UniProt C7C422).
T8 construct: gene blaNDM-1
T8 sequence (C7C422 29-270 limits assumed): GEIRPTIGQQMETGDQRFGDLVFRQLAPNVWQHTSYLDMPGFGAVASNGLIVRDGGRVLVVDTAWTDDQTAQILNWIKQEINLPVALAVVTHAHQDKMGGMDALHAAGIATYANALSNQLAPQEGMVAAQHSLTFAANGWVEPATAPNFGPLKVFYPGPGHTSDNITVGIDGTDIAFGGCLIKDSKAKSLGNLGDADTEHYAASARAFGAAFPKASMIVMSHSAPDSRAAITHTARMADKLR
Kind of assay: biochemical. Further details: Residual beta-lactamase activity; meropenem (NDM-1, 300 nm) or nitrocefin (others, 480 nm) hydrolysis, 1 uM Zn2+ (OXA-48: bicarbonate). The protocol: as §2

Chain of VIM-7 (Q840P9 18-265): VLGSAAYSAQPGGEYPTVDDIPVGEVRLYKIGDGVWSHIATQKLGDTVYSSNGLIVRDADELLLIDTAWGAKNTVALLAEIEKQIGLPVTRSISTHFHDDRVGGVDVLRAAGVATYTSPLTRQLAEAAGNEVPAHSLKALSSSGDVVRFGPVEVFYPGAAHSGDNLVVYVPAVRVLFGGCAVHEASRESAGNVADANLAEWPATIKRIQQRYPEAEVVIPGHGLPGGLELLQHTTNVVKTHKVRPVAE

A word on the pIC50: it is the negative decadic logarithm of the IC50, by convention in mol/L. Higher therefore signals a small IC50. As for `O=C(N[C@H]1Cc2cccc(C(=O)O)c2OB1O)c1ccc(CNCCN(Cc2ccccn2)Cc2ccccn2)cc1` [APC24-7], the MIC (in assay [1]; in [2]; in assay [3]; in assay [4]; with Escherichia coli MP32-64; in the assay on Escherichia coli MP21-05) was greater than 906 µM each time. The negative logarithm of the IC50 (pIC50) against VIM-2 is 6.96; against OXA-48 it was 6.38; on VIM-7, 5.97; at NDM-1 it was 6.85.

For the origin of these results see paper PMC12724231, “APC24-7, a covalent combination of boronic acid and chelator moieties, restores β-lactam efficiency against metallo-β-lactamase-producers” (mSphere, 2025).
